Test results as given in the Kinase Knowledgebase extract (Sharma et al. 2016).
pIC50, pKd: −log10 of the molar value. Where “and” joins values, the source holds several entries; their conditions need not be identical. Equal entries are not always repeated.

Legend:
PIK3CB (Human) [1] = target: PIK3CB (Human) (UniProt P42338); assay: Cell-Based Assay; settings: jurkat
PIK3CB (Human) [2] = target: PIK3CB (Human) (UniProt P42338); assay: Enzyme Assay
PIK3CG (human) = PIK3CG (human) (UniProt P48736); assay: Enzyme Assay
PIK3CG (human), sequence (P48736 whole entry, looked up): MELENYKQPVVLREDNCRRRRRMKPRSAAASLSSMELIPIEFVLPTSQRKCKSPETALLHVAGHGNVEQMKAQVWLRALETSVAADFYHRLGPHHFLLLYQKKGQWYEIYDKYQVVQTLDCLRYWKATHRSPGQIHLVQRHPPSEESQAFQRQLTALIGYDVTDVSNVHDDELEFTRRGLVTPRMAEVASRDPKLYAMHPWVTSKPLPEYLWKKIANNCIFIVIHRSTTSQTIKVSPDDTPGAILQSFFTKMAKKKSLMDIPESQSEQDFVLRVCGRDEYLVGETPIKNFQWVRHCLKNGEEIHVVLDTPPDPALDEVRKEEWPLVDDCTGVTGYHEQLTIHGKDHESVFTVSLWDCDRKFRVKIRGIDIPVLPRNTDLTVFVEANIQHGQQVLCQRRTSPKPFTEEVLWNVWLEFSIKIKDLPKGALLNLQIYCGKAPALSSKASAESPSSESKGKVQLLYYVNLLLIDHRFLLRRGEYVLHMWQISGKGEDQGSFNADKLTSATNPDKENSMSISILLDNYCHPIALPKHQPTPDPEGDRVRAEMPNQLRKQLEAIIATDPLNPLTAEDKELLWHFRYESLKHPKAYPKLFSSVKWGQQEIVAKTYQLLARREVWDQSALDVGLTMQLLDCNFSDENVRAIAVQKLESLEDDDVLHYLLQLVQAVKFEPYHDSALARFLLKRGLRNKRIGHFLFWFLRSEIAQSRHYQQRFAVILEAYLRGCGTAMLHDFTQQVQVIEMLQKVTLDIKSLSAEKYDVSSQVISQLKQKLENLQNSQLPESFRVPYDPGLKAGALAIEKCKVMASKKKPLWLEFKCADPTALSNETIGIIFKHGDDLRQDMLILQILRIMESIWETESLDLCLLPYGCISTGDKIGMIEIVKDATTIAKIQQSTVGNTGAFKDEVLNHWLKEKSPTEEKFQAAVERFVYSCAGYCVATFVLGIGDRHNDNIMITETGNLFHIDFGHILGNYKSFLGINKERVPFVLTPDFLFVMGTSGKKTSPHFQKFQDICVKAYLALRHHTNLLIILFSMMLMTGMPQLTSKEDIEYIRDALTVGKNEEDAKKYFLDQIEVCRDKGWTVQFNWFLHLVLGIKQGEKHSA

[3] = target: PIK3CA (human), P42336 [I800L]; assay: Enzyme Assay
PIK3CA (human), P42336 [I800L], sequence (P42336 whole entry I800L, looked up): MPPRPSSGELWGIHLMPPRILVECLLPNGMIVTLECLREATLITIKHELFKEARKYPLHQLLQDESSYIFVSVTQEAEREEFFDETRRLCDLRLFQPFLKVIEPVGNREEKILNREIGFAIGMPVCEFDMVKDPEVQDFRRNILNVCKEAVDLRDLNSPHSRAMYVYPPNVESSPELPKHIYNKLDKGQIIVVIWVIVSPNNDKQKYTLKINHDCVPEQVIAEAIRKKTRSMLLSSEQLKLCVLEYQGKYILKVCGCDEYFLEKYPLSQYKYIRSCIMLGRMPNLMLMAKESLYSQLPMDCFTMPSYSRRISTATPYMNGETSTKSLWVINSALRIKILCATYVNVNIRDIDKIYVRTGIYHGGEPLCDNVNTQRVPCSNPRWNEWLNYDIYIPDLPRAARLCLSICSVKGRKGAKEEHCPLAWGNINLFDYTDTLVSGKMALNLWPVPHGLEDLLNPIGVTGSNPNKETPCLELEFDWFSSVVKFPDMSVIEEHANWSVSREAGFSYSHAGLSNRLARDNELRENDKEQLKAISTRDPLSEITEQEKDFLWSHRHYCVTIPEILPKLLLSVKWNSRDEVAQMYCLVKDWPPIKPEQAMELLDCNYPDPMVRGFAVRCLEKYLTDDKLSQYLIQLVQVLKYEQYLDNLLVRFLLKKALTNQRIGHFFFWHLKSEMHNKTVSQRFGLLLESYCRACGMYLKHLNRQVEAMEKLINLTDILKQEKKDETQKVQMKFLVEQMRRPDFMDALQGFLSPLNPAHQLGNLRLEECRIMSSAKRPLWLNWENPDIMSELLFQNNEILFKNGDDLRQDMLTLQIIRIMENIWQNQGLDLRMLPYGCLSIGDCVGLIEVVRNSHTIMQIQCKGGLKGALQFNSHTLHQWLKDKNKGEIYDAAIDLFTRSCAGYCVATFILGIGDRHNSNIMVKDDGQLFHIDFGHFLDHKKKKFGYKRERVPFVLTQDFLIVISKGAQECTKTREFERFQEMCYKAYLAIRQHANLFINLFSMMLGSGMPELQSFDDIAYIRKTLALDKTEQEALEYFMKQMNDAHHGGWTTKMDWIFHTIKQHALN

PIK3CD (Human) [4] = target: PIK3CD (Human) (UniProt O00329); assay: Enzyme Assay
PIK3CD (Human), sequence (O00329 whole entry, looked up): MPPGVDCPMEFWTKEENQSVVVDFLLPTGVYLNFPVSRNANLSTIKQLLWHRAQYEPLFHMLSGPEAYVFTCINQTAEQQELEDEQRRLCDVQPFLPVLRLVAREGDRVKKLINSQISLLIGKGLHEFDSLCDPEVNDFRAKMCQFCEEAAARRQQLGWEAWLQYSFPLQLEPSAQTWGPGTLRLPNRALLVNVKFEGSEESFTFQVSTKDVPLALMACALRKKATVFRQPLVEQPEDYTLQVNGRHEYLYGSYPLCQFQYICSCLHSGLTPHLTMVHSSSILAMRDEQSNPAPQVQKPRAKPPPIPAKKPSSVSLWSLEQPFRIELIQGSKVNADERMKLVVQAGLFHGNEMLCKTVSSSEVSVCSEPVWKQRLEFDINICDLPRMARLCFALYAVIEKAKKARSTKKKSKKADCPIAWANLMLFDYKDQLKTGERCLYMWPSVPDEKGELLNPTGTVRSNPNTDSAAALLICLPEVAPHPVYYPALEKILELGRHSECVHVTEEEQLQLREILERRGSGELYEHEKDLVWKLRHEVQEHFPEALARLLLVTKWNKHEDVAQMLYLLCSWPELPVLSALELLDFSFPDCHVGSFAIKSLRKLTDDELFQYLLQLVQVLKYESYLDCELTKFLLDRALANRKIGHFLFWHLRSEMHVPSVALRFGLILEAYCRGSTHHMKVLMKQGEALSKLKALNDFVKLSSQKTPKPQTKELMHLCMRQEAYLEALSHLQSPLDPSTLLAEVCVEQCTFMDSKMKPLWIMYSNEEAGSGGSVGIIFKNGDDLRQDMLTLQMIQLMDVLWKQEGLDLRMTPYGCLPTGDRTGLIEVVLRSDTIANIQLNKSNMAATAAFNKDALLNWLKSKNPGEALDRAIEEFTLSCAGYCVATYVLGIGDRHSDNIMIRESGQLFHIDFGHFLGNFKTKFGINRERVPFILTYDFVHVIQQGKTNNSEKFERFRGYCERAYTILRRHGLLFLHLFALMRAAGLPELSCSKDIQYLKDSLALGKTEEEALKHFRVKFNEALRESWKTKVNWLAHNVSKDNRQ

PIK3CA (human) [5] = target: PIK3CA (human) (UniProt P42336); assay: Enzyme Assay
PIK3CA (human), sequence (P42336 whole entry, looked up): as the sequence (P42336 whole entry I800L, looked up) above, with L800I counted along it

PIK3CB (Human) [6] = target: PIK3CB (Human) (UniProt P42338); assay: Cell-Based Assay; settings: jurkat; remark: listed apart in the source
PIK3CD (Human) [7] = target: PIK3CD (Human) (UniProt O00329); assay: Cell-Based Assay; settings: jurkat
PIK3CA (human) [8] = target: PIK3CA (human) (UniProt P42336); assay: Cell-Based Assay; settings: jurkat

PIK3CB (Human), sequence (P42338 whole entry, looked up): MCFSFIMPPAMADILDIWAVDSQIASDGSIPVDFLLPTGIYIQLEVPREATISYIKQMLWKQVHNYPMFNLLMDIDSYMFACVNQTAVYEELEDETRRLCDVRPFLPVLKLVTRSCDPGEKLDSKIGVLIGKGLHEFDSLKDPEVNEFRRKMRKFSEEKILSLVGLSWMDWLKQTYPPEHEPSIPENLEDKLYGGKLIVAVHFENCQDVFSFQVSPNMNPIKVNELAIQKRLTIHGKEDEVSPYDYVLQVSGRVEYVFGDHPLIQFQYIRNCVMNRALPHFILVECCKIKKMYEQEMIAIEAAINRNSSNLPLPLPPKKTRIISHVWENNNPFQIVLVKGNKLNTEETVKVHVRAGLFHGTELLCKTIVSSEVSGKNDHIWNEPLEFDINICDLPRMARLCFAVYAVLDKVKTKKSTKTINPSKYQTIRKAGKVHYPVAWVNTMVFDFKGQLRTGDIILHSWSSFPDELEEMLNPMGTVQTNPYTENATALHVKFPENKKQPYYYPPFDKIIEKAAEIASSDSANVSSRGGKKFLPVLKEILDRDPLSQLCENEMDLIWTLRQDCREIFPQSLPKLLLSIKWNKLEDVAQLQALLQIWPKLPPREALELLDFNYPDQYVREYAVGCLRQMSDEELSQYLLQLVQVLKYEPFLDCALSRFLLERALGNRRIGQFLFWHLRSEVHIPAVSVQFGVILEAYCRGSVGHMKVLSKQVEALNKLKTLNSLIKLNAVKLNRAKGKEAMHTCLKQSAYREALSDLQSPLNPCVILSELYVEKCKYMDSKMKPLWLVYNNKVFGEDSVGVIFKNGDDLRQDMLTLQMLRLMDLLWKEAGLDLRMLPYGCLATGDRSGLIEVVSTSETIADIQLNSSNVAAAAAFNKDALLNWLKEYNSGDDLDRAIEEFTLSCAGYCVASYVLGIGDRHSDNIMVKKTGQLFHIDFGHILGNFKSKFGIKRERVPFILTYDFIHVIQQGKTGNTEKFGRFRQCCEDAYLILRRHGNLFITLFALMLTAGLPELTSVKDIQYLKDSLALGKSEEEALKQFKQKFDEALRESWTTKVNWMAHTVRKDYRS

In the case of `COC(=O)Nc1ccc(-c2nc(N3CCOCC3)c3cnn(C4CCN(C(=O)OC)CC4)c3n2)cc1`, the pIC50 (PIK3CB (Human) [1]) was 5.04, the pIC50 (PIK3CB (Human) [2]) was < 4.92 and the pIC50 (PIK3CG (human)) was 5.73. For the same compound, the pKd [3] was 6.72, the pIC50 (PIK3CD (Human) [4]) was 5.89 and the pIC50 (PIK3CA (human) [5]) was 6.05. The pKd (PIK3CA (human) [5]) was 6.85, the pIC50 (PIK3CB (Human) [6]) was 5.00 and the pIC50 (PIK3CD (Human) [7]) was 5.48 and 6.01. It also gave a pIC50 (PIK3CA (human) [8]) of 5.92.
